# Results as given in patent US5871779A, “Treatment of arthropathies with vanadate compounds or analogues thereof” (Mount Sinai Hospital Corporation, priority 1996, dated 1999).
# Entries after “also recorded” stand apart in the source; their conditions may differ.
# Columns and labels:
# [1] = tested on: collagenase; assay: collagenase mRNA expression in chondrocytes (Northern blot); type: cell-based, bovine; conditions: in the presence of IL 1; N-acetylcysteine 20 mM for 20 min
# From the text: (§1) The cytokine interleukin 1 (IL 1) has been used to identify the intermediate second messengers which regulate the expression of fos and jun.
# Although IL 1 stimulated superoxide production, it was not known whether IL 1 induced fos and jun expression was dependent on the production of superoxides. In order to elucidate this possibility, the effect of DPI on fos and jun mRNA levels induced by IL 1 was investigated. RNA from chondrocytes treated with IL 1 in the presence and absence of DPI were analyzed by Northern blot analysis using either fos or collagenase cDNA probes. […] Similar data has been obtained for IL 1 induced jun expression. Furthermore, inhibition of fos and jun expression by DPI was sufficient to suppress IL 1 induced and constitutive collagenase expression.
# Cells were also incubated as described above with 20 mM N-acetylcysteine for 20 min. and then incubated with IL 1 for an additional 1 or 12 hours. The RNA was extracted and examined by Northern blot analysis using cDNA probes for c-fos and collagenase. N-acetylcysteine which is converted to GSH intracellularly was also found to reduce the levels of fos and collagenase expression in response to IL 1 (FIG. 5). Presumably the higher intracellular levels of GSH reduced H2 O2 and superoxide levels and suppressed the induction of fos and collagenase expression.
# [2] = tested on: tumor growth; assay: tumor growth in vivo, orthovanadate and N-acetylcysteine (Example 7); design: species or system mice; conditions: combination with orthovanadate
# Method: Since N-acetylcysteine is converted to glutathione in cells, higher levels of glutathione may not only reduce orthovanadate induced toxicity but may also reduce tumor formation.
# Twenty mice were injected subcutaneously with 2×10^5 cells on Day 1. At day 4, the mice were divided into four groups of five mice. Group one (control) received subcutaneous injections of 50 μl of water. Group two received daily intraperitoneal injections of 50 μl of 250 mM N-acetylcysteine. Group three received daily subcutaneous injections of 50 μl of 10 mg/ml of orthovanadate. Group four received daily intraperitoneal injections of 50 μl of […] N-acetylcysteine and 20 minutes later received 50 μl of subcutaneous injection of 50 μl of 10 mg/ml of orthovanadate. On day 10 the treatment was stopped. The animals were sacrificed on Day 13 and analyzed for tumor growth.
# [3] = tested on: fos; assay: fos / c-fos mRNA expression in chondrocytes (Northern blot); type: cell-based, bovine; conditions: in the presence of IL 1; N-acetylcysteine 20 mM for 20 min
# Method: as §1
# In order to elucidate this possibility, the effect of DPI on fos and jun mRNA levels induced by IL 1 was investigated. RNA from chondrocytes treated with IL 1 in the presence and absence of DPI were analyzed by Northern blot analysis using either fos or collagenase cDNA probes.
# Since superoxides are rapidly converted to hydrogen peroxide in the cell by superoxide dismutase, whether hydrogen peroxide could mimic the effect of IL 1 in the induction of fos expression was investigated. RNA was extracted from chondrocytes (Kandel et al. supra) treated with H2 O2 for 30, 60 and 90 minutes and examined by Northern blot analysis using a fos cDNA probe.
# Bovine articular chondrocytes were isolated and plated as previously described (Kandel R. A. et al. Biochim. Biophys. Acta. 1053, 130-134, 1990). […] The amount of ^3 H-AA liberated into the supernatant was determined. To measure PGE2 production, chondrocytes were incubated for 6 hours in Ham's F12 medium, either alone or with IL 1 or PMA. […] In order to examine the expression of c-fos and c-jun, chondrocytes were incubated for 1 hour in the presence of IL-1, PMA or AA (3 μM). Chondrocytes were washed in PBS and the total RNA extracted as previously described (Cruz. et al, 1991, Biochem. J. 277, 327-330). RNA samples were run on formaldehyde agarose gels and transferred to nylon membrane for northern analysis using cDNA probes for c-fos and c-jun.
# The RNA was extracted and examined by Northern blot analysis using cDNA probes for c-fos and collagenase.
# [4] = tested on: collagenase; assay: collagenase production by chondrocytes (ELISA); type: cell-based, bovine; conditions: summary statement
# Method: The effect of orthovanadate and N-acetylcysteine on fos, jun and collagenase expression were examined. Bovine articular chondrocytes were isolated and plated as previously described (Kandel R. A. et al. Biochim. Biophys. Acta. 1053, 130-134, 1990). In order to determine the effect of orthovanadate on IL 1 and PMA (phorbol ester) induced responses, chondrocytes were incubated with orthovanadate (100 μM) for 2 hours before stimulation with IL 1 (10 ng/ml) or PMA ([…]). Collagenase production was determined by incubating chondrocytes for 24 hours with IL 1 or PMA and the cell conditioned medium was assayed for collagenase activity using an ELISA procedure as described previously (Kandel et al. supra). PLA2 activity was measured by incorporating ^3 H-arachidonic acid (^3 H-AA) into the cells and then incubating the cells with medium containing 1 mg/ml BSA, either alone or in the presence of IL 1 or PMA, for 10 min. as previously described (Conquer, J. A. […], Biochim. Biophys. Acta. 1134, 1-6). The amount of ^3 H-AA liberated into the supernatant was determined. To measure PGE2 production, chondrocytes were incubated for 6 hours in Ham's F12 medium, either alone or with IL 1 or PMA. The supernatant was analyzed by RIA using an antibody specific for PGE2 (Dr. S. A. Jones, Mount Sinai Hospital, Toronto, Canada). In order to examine the expression of c-fos and c-jun, chondrocytes were incubated for 1 hour in the presence of IL-1, PMA or AA (3 μM). Chondrocytes were washed in PBS and the total RNA extracted as previously described (Cruz. et al, 1991, Biochem. J. 277, 327-330). RNA samples were run on formaldehyde agarose gels and transferred to nylon membrane for northern analysis using cDNA probes for c-fos and c-jun.
# [5] = tested on: c-fos; assay: TNFα and bFGF induced c-fos mRNA in chondrocytes (Northern blot); type: cell-based, bovine; conditions: 30 mM, 2 hours preincubation
# Method: Chondrocyte cultures were stimulated with H2 O2 (100 μM) at different time points as indicated. […] Chondrocyte cultures were preincubated with NAC (30 mM) or Asc (100 μM) for 2 hours before the addition of bFGF (10 ng/ml) or TNFα (30 ng/ml) for 30 minutes. Both human recombinant TNFα and bFGF were dissolved in phosphate buffered saline with 0.1% bovine serum albumin. NAC and Asc were first dissolved in Ham's F12 medium containing 5% (v/v) fetal bovine serum, then neutralized with sodium hydroxide. Total RNA from bovine articular chondrocytes was isolated and the c-fos mRNA levels were determined by Northern blot analysis as described herein. The blots were subsequently stripped of DNA and re-probed with ^32 p-labelled rat β tubulin cDNA.
# Chondrocyte cultures were pretreated with DPI (2 μM) for 30 minutes before the addition of TNFα (30 ng/ml) or bFGF (10 ng/ml) for 30 minutes. Measurements of c-fos and tubulin mRNA levels were as described in Example 11.
# [6] = tested on: collagen induced arthritis; assay: collagen induced arthritis, clinical arthritis score; type: in vivo, rats; conditions: NAC 100 mg/kg/day s.c.; listed as NAC
# Method: Syngeneic 8 week old female Louvain (LOU) rats were fed with standard lab chow and housed in the vivarium at the University of California, Los Angeles. […] E. et al., J. Exp. Med., 146: 857-868, 1977). […] Rats with definite arthritis on Day 10 post immunization were randomized into two groups. Control rats (n=8) received only NAC at a dose of 100 mg/kg/day s.c. NAC was prepared as a 3% aqueous solution. […] Clinical arthritis severity of each limb was scored daily based on an objective integer scale of 0-4 (Trentham, D. E. et al., J. Exp. Med., 146: 857-868, 1977). A score of 0 indicated an unaffected limb, while a score of 4 represented fulminant erythema and edema involving distal digits. The arthritic index of a rat is defined as the sum of its four limb scores. Since CIA typically involves only the hind limbs, an arthritic index of 6 to 8 is considered severe arthritis.
smiles,measurement,setting,value
CC(=O)N[C@@H](CS)C(=O)O [N-acetylcysteine],IL 1 induction of collagenase,[1],reduce
same,toxic effects observed with orthovanadate alone,[2],reduce the slight toxic effects
same,IL 1 induction of fos,[3],reduce
same,"production of metalloproteases, such as collagenase",[4],inhibit
same,inhibition of TNFα and bFGF induced c-fos mRNA levels,[5],inhibit
same,"arthritis development / clinical severity, NAC alone",[6],developed severe arthritis; also recorded: no appreciable effect
